Source: US20170312260A1 (LAUNX BIOMEDICAL CO., LTD., priority 2014, published 2017)
Values joined by “and” are separate entries in the source; they are usually repeats but may differ in a detail not shown here. Equal entries are not always repeated. Where two headings read alike, the source gives them in different places.

Assays:
[1] = tested on: A549 (lung adenocarcinoma); test: WST-1 cell viability analysis, A549; type: cell-based; details: Homo sapiens
Procedure: (§1) The cell numbers were counted and reseed as 2×10^6 in cell culture plate/flask. Then, the culture medium were added to a volume of 10 ml, and the cells were cultured for 2-3 days. Then, the cells were suspended for loading into 96-well plates. The number of cells was 3000 and the volume of the culture medium was 100 μl each well.
(§2) Removing the original culture medium from 96-well plate. Then add 100 μl of commercially drug at a concentration of 10 μM per well. After 72 hours, add the diluted WST-1 reagent to the well with 100 μl/well, and the diluted WST-1 reagent was acquired from the dilution of 9:1 medium and WST-1 stock reagent. Finally, the total volume of each well was 200 μl/well. Culture the 96-well plate at 37° C. for 30 to 90 minutes. Detecting and calculate the survival rate of each cancer cells with an ELISA reader at OD450 nm.

[2] = tested on: bladder cancer cell line T24; test: WST-1 cell viability analysis, T24; type: cell-based; details: Homo sapiens
Procedure: as §1
as §2, with “Culture the 96-well plate at 37° C. for 30 to 90 minutes.” left out

[3] = tested on: C-33A (Cervical carcinoma); test: WST-1 cell viability analysis, C-33A; type: cell-based; details: Homo sapiens, 72 hours, read-out: viability (survival rate) of C-33A cells
Procedure: as §1, §2

[4] = tested on: prostate cancer cell line PC-3; test: WST-1 cell viability analysis, PC-3; type: cell-based; details: Homo sapiens
Procedure: as §1, §2

[5] = tested on: colorectal cancer cell line HCT116-wt; test: WST-1 cell viability analysis, HCT116-wt; type: cell-based; details: 72 hours, read-out: viability (survival rate) of HCT116-wt cells
Procedure: as §1, §2

[6] = tested on: bladder cancer cells; test: Summary of cell viability, bladder cancer; type: cell-based; details: 72 hours, summary over the bladder cancer cell lines, read-out: Inhibitory effect, bladder cancer
Procedure: as §1, §2
(§3) As a result in the experiments of the present invention.

[7] = tested on: gastric cancer cells; test: Summary of cell viability, gastric cancer; type: cell-based; details: 72 hours, summary over the gastric cancer cell lines, read-out: Inhibitory effect, gastric cancer
Procedure: as §1, §2, §3

[8] = tested on: cancers cell lines; test: Inhibition test on all kinds of cancer cell lines (overall statement); type: cell-based; details: several / various cancer cell lines, Table 18, FIG. 1
Procedure: as §1, §2, §3

[9] = tested on: normal cells; test: Toxicity to normal cells (overall statement); type: cell-based
Text: Subculture the different types of cancer cell lines. The cancer cells includes lung cancer, gastric cancer, hepatic cancer, colon cancer, skin cancer, cervical cancer, prostate cancer, bladder cancer, breast cancer, leukemia, pancreatic cancer, ovarian cancer, tongue cancer, osteosarcoma, and renal cancer. The normal cells used in the control group included kidney cell (HEK293) and human bronchial epithelial cell line BEAS-2B (as shown in Table 1).
as §2

[10] = tested on: gastric cancer cells (AGS); test: Animal model test, subcutaneous tumor in nude mice; type: in vivo, female mice (BALB/cAnN.Cg-Foxn1^nu/CrlNarl); details: for tumor volume growth, average / tumor volume, average: average of mice; for tumor longest length / tumor volume / tumor volume growth / tumor width: single mice A-C
Procedure: Animal Model Test of […] with Dose 100 mg/kg/Day and 200 mg/kg/day
In this invention, the female mice were (BALB/cAnN.Cg-Foxn1^nu/CrlNarl) purchased from National Laboratory Animal Center (Taiwan)). The weight of the mice were 21±1 g. These mice were subcutaneously injected with gastric cancer cells (AGS) and then put these mice into different cages at random. The drug test experiment was divided into three groups, include “normal control group”, “low dose group (100 mg/kg/day)”, and “high dose group (200 mg/kg/day)”. These mice were then injected test drug intraperitoneally once daily […]. The tumor sizes and body weight were measured twice a week. The tumor sizes were measured and calculated by formula: (L×W^2)/2. L represents the tumor longest length. W represents the tumor shortest diameter.

[11] = high dose (200 mg/kg/day) i.p., Fifth measurement
[12] = high dose (200 mg/kg/day) i.p., First measurement
[13] = high dose (200 mg/kg/day) i.p., First measurement, 200 mg/kg/day
[14] = high dose (200 mg/kg/day) i.p., Fourth measurement
[15] = high dose (200 mg/kg/day) i.p., Second measurement
[16] = high dose (200 mg/kg/day) i.p., Second measurement, 200 mg/kg/day
[17] = high dose (200 mg/kg/day) i.p., Third measurement
[18] = low dose (100 mg/kg/day) i.p., Fifth measurement
[19] = low dose (100 mg/kg/day) i.p., First measurement
[20] = low dose (100 mg/kg/day) i.p., First measurement, 100 mg/kg/day
[21] = low dose (100 mg/kg/day) i.p., Fourth measurement
[22] = low dose (100 mg/kg/day) i.p., Second measurement
[23] = low dose (100 mg/kg/day) i.p., Second measurement, 100 mg/kg/day
[24] = low dose (100 mg/kg/day) i.p., Third measurement
[25] = low dose (100 mg/kg/day) i.p., Third measurement, 100 mg/kg/day

## CC1=C(C(=O)OC(C)C)C(c2cccc([N+](=O)[O-])c2)C(C(=O)OC2CN(C(c3ccccc3)c3ccccc3)C2)=C(N)N1 (stereo not shown) [Azelnidipine]
[1]; A549, 10 μM, 72 hours, run 0524-10 min, read-out: viability (survival rate) of A549 cells
  viability at 10 µM: 81.4%
[1]; A549, 10 μM, 72 hours, run 0526-10 min, read-out: viability (survival rate) of A549 cells
  viability at 10 µM: 119%
[1]; A549, 10 μM, 72 hours, run 0529-10 min, read-out: viability (survival rate) of A549 cells
  viability at 10 µM: 69.7%
[1]; A549, 10 μM, 72 hours, run 0531-10 min, read-out: viability (survival rate) of A549 cells
  viability at 10 µM: 80.2%
[1]; A549, 72 h, 10 μM, average of 4 tests, read-out: Average viability of A549 cells
  viability at 10 µM: 87.5%
[2]; T-24, 10 μM, 72 hours, run 1-30 min, read-out: viability (survival rate) of T24 cells
  viability at 10 µM: 110%
[2]; T-24, 10 μM, 72 hours, run 2-20 min, read-out: viability (survival rate) of T24 cells
  viability at 10 µM: 75.3%
[2]; T-24, 10 μM, 72 hours, run 3-20 min, read-out: viability (survival rate) of T24 cells
  viability at 10 µM: 30.4%
[2]; T-24, 10 μM, 72 hours, run 4-20 min, read-out: viability (survival rate) of T24 cells
  viability at 10 µM: 102%
[2]; T-24, 72 h, 10 μM, average of 4 tests, read-out: average viability of T24 cells
  viability at 10 µM: 79.5%
[3]; run 0524-10 min
  viability at 10 µM: 142%
[3]; run 0526-10 min
  viability at 10 µM: 111%
[3]; run 0529-10 min
  viability at 10 µM: 123%
[3]; run 0531-10 min
  viability at 10 µM: 117%
[4]; PC-3, 10 μM, 72 hours, run PC-3-0524-10 min, read-out: viability (survival rate) of PC-3 cells
  viability at 10 µM: 122%
[4]; PC-3, 10 μM, 72 hours, run PC-3-0526-10 min, read-out: viability (survival rate) of PC-3 cells
  viability at 10 µM: 149%
[4]; PC-3, 10 μM, 72 hours, run PC-3-0529-10 min, read-out: viability (survival rate) of PC-3 cells
  viability at 10 µM: 110%
[4]; PC-3, 10 μM, 72 hours, run PC-3-0531-10 min, read-out: viability (survival rate) of PC-3 cells
  viability at 10 µM: 102%
[4]; PC-3, 72 h, 10 μM, average of 4 tests, read-out: Average viability of PC-3 cells
  viability at 10 µM: 121%
[5]; run 0602-30 min
  viability at 10 µM: 70.7%
[5]; run 0605-10 min
  viability at 10 µM: 146%
[5]; run 0607-10 min
  viability at 10 µM: 159%
[5]; run 0609-10 min
  viability at 10 µM: 69.3%
[6]
  viability at 10 µM: 97.3%
[7]
  viability at 10 µM: 115%
[8]
  inhibitory effect on cancer cell lines (in words): significant inhibitory effect
[9]
  toxicity to normal cells (in words): no toxicity or had little toxicity
[10]; [11]
  tumor volume growth, average: 0 mm^3
  tumor volume, average: 0 mm^3
  tumor longest length: 0 mm
  tumor volume: 0 mm^3
  tumor volume growth: 0 mm^3
  tumor width: 0 mm
[10]; [12]
  tumor volume growth, average: 25.67 mm^3
  tumor volume, average: 25.67 mm^3
[10]; [13]
  tumor longest length: 4 mm and 6 mm
  tumor volume: 18 mm^3 and 27 mm^3 and 32 mm^3
  tumor volume growth: 18 mm^3 and 27 mm^3 and 32 mm^3
  tumor width: 3 mm and 4 mm
[10]; [14]
  tumor volume growth, average: −50 mm^3
  tumor volume, average: 0 mm^3
  tumor longest length: 0 mm
  tumor volume: 0 mm^3
  tumor width: 0 mm
[10]; [15]
  tumor volume growth, average: 57.67 mm^3
  tumor volume, average: 83.33 mm^3
  tumor width: 5 mm
[10]; [16]
  tumor longest length: 7 mm and 6 mm
  tumor volume: 87.5 mm^3 and 75 mm^3
  tumor volume growth: 69.5 mm^3 and 48 mm^3 and 55.5 mm^3
[10]; [17]
  tumor volume growth, average: −33.3333 mm^3
  tumor volume, average: 50 mm^3
[10]; high dose, FIG. 3
  inhibition of tumor growth, high dose compared with low dose (in words): better effect to inhibit tumor growth
[10]; [18]
  tumor volume growth, average: 2.667 mm^3
  tumor volume, average: 22 mm^3
[10]; [19]
  tumor volume growth, average: 176.3333 mm^3
  tumor volume, average: 176.3333 mm^3
[10]; [20]
  tumor longest length: 8 mm and 6 mm and 7 mm
  tumor width: 8 mm and 7 mm and 6 mm
[10]; [21]
  tumor volume growth, average: −88 mm^3
  tumor volume, average: 19.33 mm^3
[10]; [22]
  tumor volume growth, average: −77.5 mm^3
  tumor volume, average: 98.83 mm^3
[10]; [23]
  tumor longest length: 7 mm and 6 mm and 5 mm
  tumor width: 6 mm and 5 mm
[10]; [24]
  tumor volume growth, average: 0 mm^3
  tumor volume, average: 98.83 mm^3
  tumor volume growth: 0 mm^3
[10]; [25]
  tumor longest length: 7 mm and 6 mm and 5 mm
  tumor width: 6 mm and 5 mm
[10]; low dose and high dose, FIG. 2
  inhibition effect on tumor cells (in words): significant inhibition effect
[10]; low dose and high dose, FIG. 3
  tumor volume (in words): reduce the tumor volume
  tumor volume growth (in words): effectively slow down the tumor volume growth
